For assay [1], the target named is T1, CCR9 (Homo sapiens, UniProt P51686).
T1 sequence (P51686 1-369): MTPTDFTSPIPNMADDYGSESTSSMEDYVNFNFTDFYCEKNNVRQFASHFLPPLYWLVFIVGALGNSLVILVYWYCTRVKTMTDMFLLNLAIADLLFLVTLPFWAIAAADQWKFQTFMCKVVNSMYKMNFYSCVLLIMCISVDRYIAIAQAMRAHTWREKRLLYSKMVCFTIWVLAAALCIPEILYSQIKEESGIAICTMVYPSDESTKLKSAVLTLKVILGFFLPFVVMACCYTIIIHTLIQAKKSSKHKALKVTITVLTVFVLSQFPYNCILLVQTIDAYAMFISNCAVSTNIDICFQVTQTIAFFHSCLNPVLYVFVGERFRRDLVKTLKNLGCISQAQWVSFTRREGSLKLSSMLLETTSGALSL
Kind of assay: FLIPR calcium flux assay using hCCR9 over expressed cells (TECK stimulation). It counts as cell-based. Also on record: expressed in transfected cells; host or cells: Chem-1 cells overexpressing hCCR9. The following applies: Chem1-hCCR9 overexpressing cells; Ki determined from IC50 of TECK-induced intracellular calcium increase. How it is done:
Biological Activity: FLIPR Assay Using hCCR9 Over Expressed Cells
A calcium flux assay was used to determine the ability of the compounds to interfere with the binding between CCR9 and its chemokine ligand (TECK) in Cheml-hCCR9 overexpressing cells. hCCR9 overexpressing cells were seeded (25,000 cells/well) into black Poly-D-Lysine coated clear bottom 96-well plates (BD Biosciences, Cat #356640) and incubated overnight at 37° C./5% CO2 in a humidified incubator. Media was aspirated and cells washed twice with 100 μL assay buffer (1×HBSS, 20 mM HEPES) containing 2.5 mM Probenecid. A 0.3× Fluo-4 NW calcium dye was prepared in assay buffer containing 5 mM Probenecid and stored in the dark. Each well was loaded with 100 μL of 0.3× Fluo-4 NW calcium dye and incubated at 37° C./5% CO2 for 60 minutes and then at room temperature for 30 minutes. A half-log serially diluted concentration response curve was prepared at a 3× final assay concentration for each compound (10 μM−0.1 nM final assay concentration) and 50 μL of the compound then transferred to the cells (150 μL final volume) for 60 minutes prior to stimulation (30 minutes at 37° C./5% CO2 and 30 minutes at room temperature). TECK was diluted to 4× its ECso in assay buffer (containing 0.1% [w/v] bovine serum albumin[BSA]) and 50 μL dispensed through the fluorometric imaging plate reader (FLIPR) instrument to stimulate the cells (200 μL final volume). The increase in intracellular calcium levels was measured with the FLIPR instrument. The potency of the compound as a CCR9 antagonist was calculated as an IC50 using GraphPad Prism software (variable slope four parameter). The Ki of the compound was determined from the IC50 values using the following equation.
(§1) Ki calculation: IC50/1+(Agonist (TECK) conc. used in assay/EC50 of agonist (TECK) generated on day of experiment)

The target of assay [2] is T1, CCR9. Kind of assay: FLIPR calcium flux assay using MOLT4 cells (TECK stimulation). It counts as cell-based. Also on record: endogenous in cells; host or cells: MOLT4 (human T-cell line). The note with it: MOLT4 cells (a human T-cell line); Ki determined from IC50 of TECK-induced intracellular calcium increase. The method, then: Biological Activity: FLIPR Assay Using MOLT4 Cells
A calcium flux assay was used to determine the ability of the compounds to interfere with the binding between CCR9 and its chemokine ligand (TECK) in MOLT4 cells (a human T-cell line). MOLT4 cells were seeded (100,000 cells/well) in coming cell culture plates (Cat #3603) in assay buffer (lx HBSS, 20 mM HEPES) containing 2.5 mM Probenecid. The plate was centrifuged at 1200 rpm for 3 minutes and incubated at 37° C./5% CO2 for 2 hours. A 0.3× Fluo-4 NW calcium dye was prepared in assay buffer containing 5 mM Probenecid and stored in the dark. Each well was loaded with 25 μL of 0.3× Fluo-4 NW calcium dye and incubated at 37 C/5% CO2 for 60 minutes and then at room temperature for 30 minutes. A half-log serially diluted concentration response curve was prepared at a 4× concentration for each (10 μM-0.1 nM final assay concentration) and 25 μL of the compound then transferred to the cells (100 μL final volume) for 60 minutes prior to stimulation (30 minutes at 37° C./5% CO2 and 30 minutes at room temperature). TECK was diluted to 5× its EC50 in assay buffer (containing 0.1% [w/v] bovine serum albumin [BSA]) and 25 μL dispensed through the FLIPR instrument to stimulate the cells (125 μL final volume). The increased in intracellular calcium levels was measured with the FLIPR instrument. The potency of the compound as CCR9 antagonist was calculated as an IC50 using GraphPad Prism software (variable slope four parameter). The Ki of the compound was determined from the IC50 values using the following equation.
as §1
On the technique in general: Calcium assays in cells follow changes in intracellular calcium, usually with a dye or a luminescent sensor.

What is called Ki is a measure of affinity in units of concentration, obtained from inhibition or displacement. As to `CCn1cc(-c2cc3c(C#N)ccc(NS(=O)(=O)c4ccc(C(C)(C)C)cc4)n3n2)cn1` [Compound 189], the inhibitory constant (Ki) on CCR9 [1] came to 22 nM; on CCR9 [2] it was 10 nM.

As for `CC(C)(C)c1ccc(S(=O)(=O)Nc2ccc(C#N)c3cc(-c4cncc(F)c4)nn23)cc1` [Compound 156, 4-(tert-butyl)-N-(4-cyano-2-(5-fluoropyridin-3-yl)pyrazolo[1,5-a]pyridin-7-yl)benzenesulfonamide], the Ki was determined as 107 nM at CCR9 [1] and 51 nM on CCR9 [2].

On to `COc1cncc(-c2cc3c(C#N)ccc(NS(=O)(=O)c4ccc(C(C)(C)C)cc4)n3n2)c1` [Compound 161], for which the Ki at CCR9 [1] amounted to 127 nM; on CCR9 [2], 62 nM.

Regarding `COc1ccc(-c2cc3c(C#N)ccc(NS(=O)(=O)c4ccc(C(C)(C)C)cc4)n3n2)cn1` [Compound 198], the inhibitory constant (Ki) came to 54 nM on CCR9 [1] and 26 nM on CCR9 [2].

With `Cc1cc2c(Cl)ccc(NS(=O)(=O)c3ccc(C(C)(C)C)cc3)n2n1` [Compound 94, 4-(tert-butyl)-N-(4-chloro-2-methylpyrazolo[1,5-a]pyridin-7-yl)benzenesulfonamide], the Ki came out at 181 nM on CCR9 [1] and 162 nM at CCR9 [2].

In the case of `CC(C)n1cc(-c2cc3c(C#N)ccc(NS(=O)(=O)c4ccc(C(C)(C)C)cc4)n3n2)cn1` [Compound 191], the Ki at CCR9 [1] is 9 nM; at CCR9 [2], 19 nM.

For the compound `Cc1ncccc1-c1cc2c(Cl)ccc(NS(=O)(=O)c3ccc(C(C)(C)C)cc3)n2n1` [Compound 203], the Ki at CCR9 [1] was 149 nM; on CCR9 [2] it was 85 nM.

Source of the values: patent US20170002011A1, “BENZENE SULFONAMIDES AS CCR9 INHIBITORS” (NORGINE B.V., priority 2013, published 2017).
